Measurements as given in the supplement of paper PMC10307832.

How the values were obtained:
Assay in all cases: relative viability (nuclei count vs DMSO), 5 days (fraction); higher = more cells survive
TPCA-1 + Vorinostat = compound: C1=CC(=CC=C1C2=CC(=C(S2)NC(=O)N)C(=O)N)F [TPCA-1] + O=C(CCCCCCC(=O)Nc1ccccc1)NO [Vorinostat] (partner 1 µM)
How it was run: (§1)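 Nuclei were stained with Hoechst during a one-step fixation (final 0.05% Triton X-100, 1% formaldehyde, 1 ug/ml Hoechst) carried out 5 days after dosing, then counted on 4× images. The cells, lung cancer lines in 1536-well plates, had been dosed by pin tool the day after seeding with one drug alone or a fixed anchor-drug dose plus five library-drug doses (not always all listed) in √10 steps. Relative viability is the nuclei count in treated wells divided by that in vehicle wells, and each value is the median of duplicate plates.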

[1] = compound: C[C@]12O[C@H](C[C@]1(O)CO)n1c3ccccc3c3c4c(c5c6ccccc6n2c5c31)CNC4=O [Lestaurtinib] + Cc1cc(Nc2cc(N3CCN(C)CC3)nc(Sc3ccc(NC(=O)C4CC4)cc3)n2)n[nH]1 [Tozasertib] (partner 0.1 µM)
How it was run: as §1

Lestaurtinib + Dasatinib = compound: C[C@]12O[C@H](C[C@]1(O)CO)n1c3ccccc3c3c4c(c5c6ccccc6n2c5c31)CNC4=O [Lestaurtinib] + Cc1nc(Nc2ncc(C(=O)Nc3c(C)cccc3Cl)s2)cc(N2CCN(CCO)CC2)n1 [Dasatinib] (partner 0.075 µM)
How it was run: as §1

TPCA-1 + Alpelisib = compound: C1=CC(=CC=C1C2=CC(=C(S2)NC(=O)N)C(=O)N)F [TPCA-1] + Cc1nc(NC(=O)N2CCC[C@H]2C(N)=O)sc1-c1ccnc(C(C)(C)C(F)(F)F)c1 [Alpelisib] (partner 2 µM)
How it was run: as §1

| Cell Line | relative viability (TPCA-1 + Vorinostat; first compound 0.04 µM) | relative viability (TPCA-1 + Vorinostat; first compound 0.1265 µM) | relative viability (TPCA-1 + Vorinostat; first compound 0.4 µM) | relative viability (TPCA-1 + Vorinostat; first compound 1.265 µM) | relative viability (TPCA-1 + Vorinostat; first compound 4 µM) | relative viability ([1]; first compound 0.005 µM) | relative viability ([1]; first compound 0.01581 µM) | relative viability ([1]; first compound 0.05 µM) | relative viability ([1]; first compound 0.1581 µM) | relative viability ([1]; first compound 0.5 µM) | relative viability (Lestaurtinib + Dasatinib; first compound 0.005 µM) | relative viability (Lestaurtinib + Dasatinib; first compound 0.01581 µM) | relative viability (Lestaurtinib + Dasatinib; first compound 0.05 µM) | relative viability (Lestaurtinib + Dasatinib; first compound 0.1581 µM) | relative viability (Lestaurtinib + Dasatinib; first compound 0.5 µM) | relative viability (TPCA-1 + Alpelisib; first compound 0.04 µM) | relative viability (TPCA-1 + Alpelisib; first compound 0.1265 µM) | relative viability (TPCA-1 + Alpelisib; first compound 0.4 µM) | relative viability (TPCA-1 + Alpelisib; first compound 1.265 µM) | relative viability (TPCA-1 + Alpelisib; first compound 4 µM) |
| --- | --- | --- | --- | --- | --- | --- | --- | --- | --- | --- | --- | --- | --- | --- | --- | --- | --- | --- | --- | --- |
| NCI-H2023 | 0.634 | 0.608 | 0.772 | 0.506 | 0.241 | 0.386 | 0.554 | 0.357 | 0.269 | 0.0989 | 0.674 | 0.586 | 0.422 | 0.473 | 0.159 | 0.598 | 0.522 | 0.634 | 0.489 | 0.417 |
| LC-2-ad | 0.742 | 0.69 | 0.705 | 0.716 | 0.155 | 0.441 | 0.498 | 0.442 | 0.393 | 0.289 | 0.618 | 0.831 | 0.258 | 0.281 | 0.256 | 0.937 | 0.775 | 0.99 | 0.82 | 0.326 |
| NCI-H1666 | 1.08 | 0.966 | 1.02 | 0.988 | 1.1 | 0.656 | 0.663 | 0.686 | 0.531 | 0.373 | 1.13 | 0.922 | 0.924 | 0.747 | 0.649 | 1.08 | 0.813 | 0.925 | 1.04 | 0.747 |
| 201T | 1.02 | 0.951 | 0.99 | 0.937 | 0.886 | 1 | 0.984 | 1.05 | 0.955 | 0.354 | 0.598 | 0.546 | 0.552 | 0.583 | 0.4 | 1 | 0.998 | 1.01 | 1.08 | 0.983 |
| NCI-H2009 | 0.746 | 0.785 | 0.693 | 0.757 | 0.675 | 0.783 | 0.832 | 0.625 | 0.454 | 0.359 | 0.257 | 0.227 | 0.2 | 0.211 | 0.118 | 1.2 | 1.13 | 1.13 | 1.1 | 1.2 |
| NCI-H1395 | 0.637 | 0.645 | 0.856 | 0.604 | 0.55 | 0.773 | 0.791 | 0.64 | 0.721 | 0.46 | 0.423 | 0.402 | 0.398 | 0.373 | 0.363 | 1.16 | 0.997 | 1.14 | 1.07 | 0.941 |
| NCI-H2228 | 0.733 | 0.813 | 0.933 | 0.501 | 0.567 | 0.178 | 0.23 | 0.257 | 0.219 | 0.163 | 0.494 | 0.546 | 0.497 | 0.22 | 0.18 | 0.869 | 0.809 | 1.02 | 0.609 | 0.485 |
| LU99A | 0.546 | 0.463 | 0.544 | 0.457 | 0.316 | 0.287 | 0.297 | 0.271 | 0.218 | 0.226 | 0.518 | 0.528 | 0.387 | 0.298 | 0.215 | 0.564 | 0.445 | 0.5 | 0.388 | 0.243 |
| NCI-H1437 | 0.921 | 0.867 | 0.897 | 0.819 | 0.784 | 0.451 | 0.438 | 0.373 | 0.309 | 0.408 | 0.442 | 0.475 | 0.331 | 0.382 | 0.265 | 0.959 | 0.869 | 1.04 | 0.85 | 0.755 |
